A word on the GI50: it is the concentration giving 50% growth inhibition.

The source of these data is patent US10363284B2, “β-hairpin peptidomimetics” (POLYPHOR AG, priority 2012, dated 2019).

Where two headings read alike, the source gives them in different places. Positions of bridges follow the written chain, without caps; N, C: chain ends. Non-standard residues stand in square brackets, D forms with d. Residues, ends and D or L forms follow the SMILES beside them. dLys(iPr) = CC(C)NCCCC[C@@H](N)C(=O)O; Lys(iPr) = CC(C)NCCCC[C@H](N)C(=O)O; Orn(iPr) = CC(C)NCCC[C@H](N)C(=O)O; Ac3c = NC1(C(=O)O)CC1

Series [1] in a line: in vitro. The series is classed as cell-based. On the procedure:
Namalwa cells (CXCR4 natively expressing non-adherent cells, ATCC CRL-1432) were cultured in RPM11640 plus 10% FBS, and pen/strept. HELA cells were maintained in RPMI1640 plus 10% FBS, pen/strept and 2 mM L-glutamine. Cos-7 cells were grown in DMEM medium with […] glucose supplemented with 10% FCS, pen/strept and 2 mM L-glutamine. All cell lines were grown at 37° C. at 5% CO2. Cell media, media supplements, PBS-buffer, HEPES, antibiotic/antimycotic, pen/strept, non essential amino acid, L-glutamine, β-mercaptoethanol and sera were purchased from Gibco (Pailsey, UK). All fine chemicals were supplied by Merck (Darmstadt, Germany).
The cytotoxicity of the peptides to HELA cells (Acc57) and COS-7 cells (CRL-1651) was determined using the MTT reduction assay (T. Mossman, J. Immunol. Meth. 1983, 65, 55-63; M. V. Berridge, A. S. Tan, Arch. Biochem. Biophys. 1993, 303, 474-482). Briefly, the method was as follows: 4000 HELA cells/well and 3400 COS-7 cells/well were seeded and grown in 96-well microtiter plates for 24 h at 37° C. at 5% CO2. Thereafter, time zero (Tz) was determined by MTT reduction (see below). The supernatant of the remaining wells was discarded, and fresh medium and compounds in serial dilutions (12.5, 25 and 50 μM, triplicates; 0 μM, blank) were pipetted into the wells. After incubation of the cells for 48 h at 37° C. at 5% CO2 the supernatant was discarded again and 100 μL MTT reagent (0.5 mg/mL in RPMI1640 and DMEM, respectively)/well was added. Following incubation at 37° C. for 2-4 h the media were aspirated and the cells were spiked (100 μL isopropanol/well). The absorbance of the solubilized formazan was measured at 595 nm (OD595peptide). For each concentration averages were calculated from triplicates. The percentage of growth was calculated as follows: (OD595peptide−OD595Tz)/(OD595blank−OD595Tz)×100%. The GI50 (Growth Inhibition) concentrations were calculated for each peptide by using a trend line function for the concentrations (50, 25, 12.5 and 0 μM), the corresponding percentages and the value 50, (=TREND (C50:C0,%50:%0, 50).

Series [2] relates to human red blood cells (hRBC). The series is classed as cell-based. The following applies: red cells of human, 1 h. On the procedure: The peptides were tested for their hemolytic activity against human red blood cells (hRBC). Fresh hRBC were washed four times with phosphate buffered saline (PBS) and centrifuged for 10 min at 3000×g. Compounds (100 μM) were incubated with 20% hRBC (v/v) for 1 h at 37° C. and shaking at 300 rpm. The final erythrocyte concentration was approximately 0.9×10^9 cells/mL. A value of 0% and 100% cell lysis, respectively, was determined by incubation of hRBC in the presence of PBS containing 0.001% acetic acid and 2.5% Triton X-100 in H2O, respectively. The samples were centrifuged, the supernatants were 8-fold diluted in PBS buffer and the optical densities (OD) were measured at 540 nm. The 100% lyses value (OD540H2O) gave an OD540 of approximately 0.5-1.0.
Percent hemolysis was calculated as follows: (OD540peptide/OD540H2O)×100%.

Series [3] is described as follows: Plasma stability, human plasma. The series is classed as in vitro ADME. The following applies: for human pl. T1/2: 37° C.; for remaining at 24 h, 10 μM: 1440 min, read-out: human pl. cpd left at 1440 min. As to the method: The stability of the peptides in human and mouse plasma was determined by applying the following method: 346.5 μL/deep well of freshly thawed human plasma (Basler Blutspende-dienst) and mouse plasma (Harlan Sera-Lab, UK), respectively, were spiked with 3.5 μL/well of compound dissolved in DMSO/H2O (90/10 [v/v], 1 mM, triplicate) and incubated at 37° C. At t=0, 15, 30, 60, 120, 240 and 1440 min aliquots of 50 μL were transferred to filtration plate wells containing 150 μL/well of 2% formic acid in acetonitrile. Following shaking for 2 min the occurred suspensions were filtrated by vacuum. 100 μL of each filtrate were transferred to a propylene microtiter plate and dried under N2. The residual solids were reconstituted by adding 100 μL/well of water/acetonitrile, 95/5 (v/v)+0.2% formic acid and analyzed by LC/MS as follows: Column: Waters, XBridge C18, mobile phases: (A) water+0.1% formic acid and (B) acetonitrile/water, 95/5 (v/v)+0.1% formic acid, gradient: 5%-100% (B) in 1.8 minutes, electrospray ionization, MRM detection (triple quadrupole). The peak areas were determined and triplicate values are averaged. The stability is expressed in percent of the initial value at t=0. (tx/t0×100). By using the TREND function of EXCEL (Microsoft Office 2003) T1/2 were determined.

The nature of series [4]: Plasma protein binding. As to conditions: human. The series is classed as in vitro ADME. As to the method: 495 μL aliquots of human plasma (Basler Blutspendedienst) as well as 495 μL aliquots of PBS were placed in individual deepwells of a polypropylene plate (Greiner) and spiked each with 5 μL of 1 mM solutions of peptides in 90% DMSO. After shaking the plate for 2 min at 600 rpm 150 μL aliquots of the plasma/peptide mixtures were transferred in triplicates to the polypropylene filter plate (10 kDa, Millipore) whereas 150 μL aliquots of the PBS/peptide mixtures were transferred either to the individual wells of the filter plate (filtered controls) or directly into the individual wells of the receiving plate (Greiner) (non-filtered controls). The plate sandwich consisting of filter and receiving plate was incubated for 1 h at 37° C. and subsequently centrifuged at 3220 g for 2 h at 15° C. The filtrates in the receiving plate were analysed by LC/MS as follows: Column: Waters, XBridge C18, mobile phases: (A) water+0.1% formic acid and (B) acetonitrile/water, 95/5 (v/v)+0.1% formic acid, gradient: 5%-100% (B) in 1.8 minutes, electrospray ionization, MRM detection (triple quadrupole). The peak areas were determined and triplicate values are averaged. The binding is expressed in percent of the filtered and non-filtered controls by 100−(100×T1h/Tctr). Finally the average of these values is calculated.

The mark [5] stands for this setting: read-out: Plasma protein binding (converted).

Consider `CC(C)NCCCC[C@@H]1NC(=O)[C@H](CCC(N)=O)NC(=O)[C@H](Cc2ccc(O)cc2)NC(=O)[C@@H]2CSSC[C@H](NC(=O)[C@H](Cc3ccc(O)cc3)NC(=O)[C@H](Cc3c[nH]cn3)NC(=O)[C@H](Cc3ccc(O)cc3)NC(=O)[C@@H]3CCCN3C(=O)[C@@H](CCCCNC(C)C)NC1=O)C(=O)N[C@@H](CO)C(=O)N[C@@H](C)C(=O)N1CCC[C@@H]1C(=O)N[C@@H](CCCNC(C)C)C(=O)N[C@@H](CCCNC(=N)N)C(=O)N[C@@H](Cc1ccc(O)cc1)C(=O)N2` [Ex. 1, cyclo(-Tyr^1-His^2-Tyr^3-Cys^4-Ser^5-Ala^6-^DPro^7-Orn(iPr)^8-Arg^9-Tyr^10-Cys^11-Tyr^12-Gln^13-Lys(iPr)^14-^DLys(iPr)^15-Pro^16-), disulfide bond between Cys^4 and Cys^11] (cyclo(A[dP][Orn(iPr)]RYCYQ[Lys(iPr)][dLys(iPr)]PYHYCS); disulfide 6-15), for which the GI50 at 48 h was more than 50 µM in series [1] (African green monkey) and more than 42 µM in series [1] (human). Also, the “Hemolysis at 100 μM” value in series [2] is recorded as 1.0%. In addition, the “human pl. T1/2” value in series [3] stood at 24 h. The remaining at 24 h, 10 μM in series [3] was determined as 100%. Further, the fraction unbound at 1 h, 10 μM in series [4] (read-out: Fraction unbound, fu) was 0.45; in series [4] (setting [5]) it was 0.45.
Take `CC(C)NCCCC[C@@H]1NC(=O)[C@H](CCC(N)=O)NC(=O)[C@H](Cc2ccc(O)cc2)NC(=O)[C@@H]2CSSC[C@H](NC(=O)[C@H](Cc3ccc(O)cc3)NC(=O)[C@H](Cc3c[nH]cn3)NC(=O)[C@H](Cc3ccc(O)cc3)NC(=O)[C@@H]3CCCN3C(=O)[C@H]3CCCN3C1=O)C(=O)N[C@@H](CO)C(=O)NC1(CC1)C(=O)N1CCC[C@@H]1C(=O)N[C@@H](CCCNC(C)C)C(=O)N[C@@H](CCCNC(=N)N)C(=O)N[C@@H](Cc1ccc(O)cc1)C(=O)N2` [Ex. 2, cyclo(-Tyr^1-His^2-Tyr^3-Cys^4-Ser^5-Acc^6-^DPro^7-Orn(iPr)^8-Arg^9-Tyr^10-Cys^11-Tyr^12-Gln^13-Lys(iPr)^14-^DPro^15-Pro^16-), disulfide bond between Cys^4 and Cys^11] (cyclo(YHYCS[Ac3c][dP][Orn(iPr)]RYCYQ[Lys(iPr)][dP]P); disulfide 4-11): the GI50 at 48 h in series [1] (African green monkey) is more than 50 µM; in series [1] (human), more than 34 µM. For the same compound, in series [2], the “Hemolysis at 100 μM” value turned out to be 1.0%. Moreover, the “human pl. T1/2” value in series [3] came to 24 h. Also, the remaining at 24 h, 10 μM in series [3] turned out to be 87%. Besides, the fraction unbound at 1 h, 10 μM was 0.57 in series [4] (read-out: Fraction unbound, fu) and 0.57 in series [4] (setting [5]).
